Here are results for six sequences from US6881824B1, “Peptides suitable for use in antigen specific immunosuppressive therapy” (Akzo Nobel N.V., priority 1996, dated 2005).

Test [1] has as its target T1, DR4 (DRB1*0401) molecules (Homo sapiens, UniProt P01903+P01911, A100K/A169T/F76Y/I96L/K127E/L162R/M171V/N62H/P40V/Q125Y/R42H/S133A/S149N/S66Y/V115G/V209L/W38E).
T1 construct: molecules were purified from the homozygous EBV-transformed human B lymphoblastoid cell lines Huly138IC2 and BM92 using the mAb; endogenous in cells
In words: Peptide HLA-DR binding assay (semi-quantitative competition binding). The conditions noted are these: for IC50: competition with biotinylated marker peptide HA 309 Y→F, pH5.0, 44 hr RT. The procedure: DR4 (DRB1*0401) and DR4 (DRB1*0404) molecules were purified from the homozygous EBV-transformed human B lymphoblastoid cell lines Huly138IC2 and BM92 using the mAb t243, directed against a monomorphic determinant on the DR-complex (Lampson, L. A and R. Levy (1980), J. Immunol. 125:293 299).
The peptide binding studies were performed using a semi-quantitative competition binding assay (Joosten et al 1994, Int. Immunol. 6, 751). Briefly, purified HLA-DR molecules (30 nM DR4(DRB1*0401) or 15 nM DR4 (DRB1*0404) were incubated at pH5.0 with 50 nM biotinylated marker peptide (HA 309y→F) and a concentration range of competitor peptide in a final volume of 25 μl binding buffer (PBS containing 0.01% […], 0.05% NP-40, 5% DMSO, 1 mM AEBSF, 1 mM N-ethyl maleimide, 8 mM EDTA and 10 μm pepstatin A). After 44 hr of incubation at RT, HLA DR bound marker peptide was separated from free marker peptide using a 96 well vacuum dotblot apparatus (Hybri. dot, BRL) and a nitrocellulose membrane (Hybond ECL, Amersham, UK). The nitrocellulose filters were blocked with 0.5% DNA blocking reagent (Boehringer) in 0.1 M maleic acid, 150 mM NaCl, pH7.5.
After 0.5-1 hr, the filters were washed in PBS, 0.05% Tween 20 (Sigma) and incubated with Strepcavidin-HRPO (Southern Biotechnology) in a 1:10.000 dilution. Biotinylated peptides were detected by enhanced chemiluminescence using a Western Blot ECL kit (Amersham). Exposure of the preflashed films (Hyperfilm-ECL, Amersham) was for 10 min. The spots were analysed by scanning the films and using Image Quant/Excel software for analysis.
The affinity of a given peptide for binding DRB1*0401-encoded molecules was related to competition with the marker peptide. This relative binding affinity was defined as the peptide concentration at which the signal was reduced to 50% (IC50).

The subject of test [2] is PBMC from healthy donors carrying the DR4 (DRB1*0401) specificity. The test is described as follows: Peptide-induced proliferative responses of PBMC from healthy donors. The class given is cell-based, human. The conditions noted are these: for Peptide-induced proliferative response of PBMC, HD 230: healthy donor 230, 0401, R; for Peptide-induced proliferative response of PBMC, HD 235: healthy donor 235, 0401, R; for Responses induced only in healthy donors: healthy donors 230, 235. The protocol:
Peripheral blood samples from 5 healthy donors carrying the DR4(DRB1*0401) specificity were obtained with informed consent and included in this study as a control.
(§1) In order to identify T-cell epitopes within HC gp-39, 59 peptides of 16 AA in length, overlapping by 10 AA were tested for their capacity to induce a proliferative response in PBMC from RA patients and healthy controls carrying the DR4 (DRB1*0401) specificity (Table 1).
(§2) PBMC obtained from heparinized venous peripheral blood were isolated by standard centrifugation on a Ficoll-Paque gradient. Cells were cultured in four-fold at a concentration of 1,5×10^5 cells/well in medium supplemented with 10% heat-inactivated, autologous plasma, L-glutamine, 2-ME and antibiotics in flatbottomed microtiter plates. Cells were incubated in medium alone or in the presence of phytohaemagglutinin (PHA) (2:5 μg/ml) to assert cell viability, or in the presence of 10 or 100 μg/ml of the HC gp-39-derived peptides. In several cases, sets of 2 or 3 sequential peptides were tested due to limited PBMC numbers of individual donors. Cultures were incubated in a total volume of 210 μl for 7 days at […] in a humidified atmosphere of 5% CO2. Cultures were pulsed during the last 18 hours with 0.25 μCi ^3H-thymidine ([^3H]TdR). Cells were harvested on glassfiber filters and [^3H] TdR incorporation was measured by gas scintillation (Packard Matrix 96 βcounter). Only peptides inducing a proliferative response at both 10 and 100 μg/ml were considered to contain a T-cell epitope. Responses were defined positive if stimulation index values (SI, antigen-specific counts per 5 min (cp5 m)/background cp5 m) exceeded or equaled 2.
(§3) T-cell reactivity to HC gp-39-derived peptide as analyzed by measuring the PBMC proliferative response in DR4 (DRB1*0401)-positive RA patients and healthy donors. Proliferative responses were tested in autologous plasma. In Table IIIA and IIIB the results of 7 experiments are presented showing the responses of RA patients (Table IIIA) and the responses of healthy donors (Table IIIB) to 59 overlapping sequences derived from HC gp-39.

Test [3] relates to PBMC from RA patients carrying the DR4 (DRB1*0401) specificity. In words: Peptide-induced proliferative responses of PBMC from RA patients. The class given is cell-based, human. The conditions noted are these: for Peptide-induced proliferative response of PBMC, RA 272: RA patient 272, 0401, R; for Peptide-induced proliferative response of PBMC, RA 276: RA patient 276, 0401, R; for Peptide-induced proliferative response of PBMC, RA 286: RA patient 286, 0401, R. The procedure: This study included 7 DR4(DRB1*0401)-positive patients diagnosed as suffering from RA according to the ARA criteria (Arnett et al., (1988), Arthritis Rheum. 31, 315). Peripheral blood samples were obtained with informed consent. There were five women and two men aged 46-79 years. Their duration of disease ranged from over 10 to over 30 years. Three out of 7 patients had at least 3 swollen joints. […] All patients were on medication: Four patients were treated with prednisone, three patients received anti-rheumatic agents and 4 patients were treated with NSAID's as well.
as §1, §2, §3

Test [4] deals with PBMC from RA patients and healthy controls carrying the DR4 (DRB1*0401) specificity. In words: Proliferative responses of blood mononuclear cells, RA patients and healthy donors taken together. The class given is cell-based, human. The conditions noted are these: for Responses to the individual peptides (PBMC proliferation), identifying T-cell epitopes: any donor. The protocol:
as §1, §2, §3

[5] abbreviates: 100 and 10 microgram/ml, 7 days, 3H-thymidine incorporation.

Ends that are not written are not given here.

For orientation: IC50 means the midpoint of a concentration-inhibition curve. Consider “DYAVGYMLRLGAPASK [compound 37, DYAVGYMLRLGAPASK]”, for which, in test [1], the “Relative affinity of binding to DR4 (DRB1*0401), in words” value (shortened to “Relative affinity of binding to DR4”) is on record as “relatively high affinity”. Besides, the IC50 in test [1] (Table IIIA) is less than 1000 nM. The sequence also returned an IC50 in test [1] (Table IIIB) of less than 1000 nM. In addition, the “Peptide-induced proliferative response of PBMC, HD 155” value in test [2] (healthy donor 155, 0401, R, 100 and 10 microgram/ml, 7 days, 3H-thymidine incorporation) was “pos (positive responses to both 100 and 10 microgram/ml of peptide or sets of peptides (SI>2 were regarded positive))”. The “Presence of T-cell epitopes confirmed by PBMC of healthy donor 230” value (“Presence of T-cell epitopes confirmed” below) in test [2] is given as “confirmed the presence of T-cell epitopes”. In addition, in test [2] (setting [5]), the “Peptide-induced proliferative response of PBMC, HD 230” value is “pos (positive responses to both 100 and 10 microgram/ml of peptide or sets of peptides (SI>2 were regarded positive))”; the “Peptide-induced proliferative response of PBMC, HD 235” value is “pos (positive responses to both 100 and 10 microgram/ml of peptide or sets of peptides (SI>2 were regarded positive))”. In addition, the “Peptide-induced proliferative response of PBMC, RA 272” value in test [3] (setting [5]) was “pos (positive responses to both 100 and 10 microgram/ml of peptide or sets of peptides (SI≧2 were regarded positive))”. The “Response of PBMC from RA patient 272 to individual peptides, in words” value (“Response of PBMC … in words” for short) in test [3] is “appeared to respond”. In addition, the “Responses to the individual peptides (PBMC proliferation), identifying T-cell epitopes” value (“Responses to the individual peptides” for short) in test [4] is listed as “observed in one or more donors”.

Turning to “GRSFTLASSETGVGAP [compound 41, GRSFTLASSETGVGAP]”, in test [1], the “Relative affinity of binding to DR4” value is given as “relatively high affinity”. In test [1] (Table IIIB), the 50% inhibitory concentration (IC50) is less than 1000 nM. Moreover, in test [2] (setting [5]), the “Peptide-induced proliferative response of PBMC, HD 235” value was “pos (positive responses to both 100 and 10 microgram/ml of peptide or sets of peptides (SI>2 were regarded positive))”. The “Responses induced only in healthy donors” value in test [2] is “induced only responses in healthy donors”. Moreover, in test [4], the “Responses to the individual peptides” value is reported as “observed in one or more donors”.

“LDRFLCTHIIYSFANI [compound 5, LDRFLCTHIIYSFANI]”: in test [1], the “Relative affinity of binding to DR4” value is “relatively high affinity”. The half-inhibitory concentration (IC50) in test [1] (Table IIIA) and in test [1] (Table IIIB) was less than 1000 nM each time. Also, the “Presence of T-cell epitopes confirmed” value in test [2] is “confirmed the presence of T-cell epitopes”. Besides, the “Peptide-induced proliferative response of PBMC, HD 230” value in test [2] (setting [5]) is “pos (positive responses to both 100 and 10 microgram/ml of peptide or sets of peptides (SI>2 were regarded positive))”. Also, the “Peptide-induced proliferative response of PBMC, RA 259” value in test [3] (RA patient 259, 0401, R, 100 and 10 microgram/ml, 7 days, 3H-thymidine incorporation) was “pos (positive responses to both 100 and 10 microgram/ml of peptide or sets of peptides (SI≧2 were regarded positive))”. Further, the “Peptide-induced proliferative response of PBMC, RA 272” value in test [3] (setting [5]) is “pos (positive responses to both 100 and 10 microgram/ml of peptide or sets of peptides (SI≧2 were regarded positive))”. Further, the “Response of PBMC … in words” value in test [3] is reported as “appeared to respond”. In test [4], the “Responses to the individual peptides” value is “observed in one or more donors”.

As to “PNLKTLLSVGGWNFGS [compound 12, PNLKTLLSVGGWNFGS]”, the “Relative affinity of binding to DR4” value in test [1] was “relatively high affinity”. In test [1] (Table IIIB), this sequence gave an IC50 of less than 1000 nM. In addition, the “Peptide-induced proliferative response of PBMC, HD 230” value in test [2] (setting [5]) was “pos (positive responses to both 100 and 10 microgram/ml of peptide or sets of peptides (SI>2 were regarded positive))”. The “Responses induced only in healthy donors” value in test [2] is listed as “induced only responses in healthy donors”. Also, in test [4], the “Responses to the individual peptides” value is “observed in one or more donors”.

On to “QHLDFISIMTYDFHGA [peptide 30, QHLDFISIMTYDFHGA]”, for which the “Relative affinity of binding to DR4” value in test [1] is “relatively high affinity”. Also, the half-inhibitory concentration (IC50) in test [1] (Table IIIA) was less than 1000 nM. Besides, in test [1] (Table IIIB), the half-inhibitory concentration (IC50) was less than 1000 nM. Besides, the “Presence of T-cell epitopes confirmed” value in test [2] is “confirmed the presence of T-cell epitopes”. Further, the “Peptide-induced proliferative response of PBMC, HD 230” value in test [2] (setting [5]) was “pos (positive responses to both 100 and 10 microgram/ml of peptide or sets of peptides (SI>2 were regarded positive))”. Besides, the “Peptide-induced proliferative response of PBMC, RA 262” value in test [3] (RA patient 262, 0401, R, 100 and 10 microgram/ml, 7 days, 3H-thymidine incorporation) was “pos (positive responses to both 100 and 10 microgram/ml of peptide or sets of peptides (SI≧2 were regarded positive))”. Also, in test [3] (setting [5]), the “Peptide-induced proliferative response of PBMC, RA 272” value is “pos (positive responses to both 100 and 10 microgram/ml of peptide or sets of peptides (SI≧2 were regarded positive))”; the “Peptide-induced proliferative response of PBMC, RA 276” value is “pos (positive responses to both 100 and 10 microgram/ml of peptide or sets of peptides (SI≧2 were regarded positive))”; the “Peptide-induced proliferative response of PBMC, RA 286” value is “pos (positive responses to both 100 and 10 microgram/ml of peptide or sets of peptides (SI≧2 were regarded positive))”. In addition, the “Response of PBMC … in words” value in test [3] is recorded as “appeared to respond”. Moreover, the “Responses to the individual peptides” value in test [4] is recorded as “observed in one or more donors”. Besides, in test [4] (overall, all donors), the “Peptides or sets of peptides most frequently recognized” value was “most frequently recognized”.

On to “THIIYSFANISNDHID [compound 6, THIIYSFANISNDHID]”, for which the “Relative affinity of binding to DR4” value in test [1] was “relatively high affinity”. The sequence also displayed an IC50 in test [1] (Table IIIA) of less than 1000 nM. The half-inhibitory concentration (IC50) in test [1] (Table IIIB) was less than 1000 nM. Further, in test [2], the “Presence of T-cell epitopes confirmed” value is “confirmed the presence of T-cell epitopes”. In test [2] (setting [5]), the “Peptide-induced proliferative response of PBMC, HD 230” value is “pos (positive responses to both 100 and 10 microgram/ml of peptide or sets of peptides (SI>2 were regarded positive))”. In test [3] (setting [5]), the “Peptide-induced proliferative response of PBMC, RA 272” value was “pos (positive responses to both 100 and 10 microgram/ml of peptide or sets of peptides (SI≧2 were regarded positive))”; the “Peptide-induced proliferative response of PBMC, RA 276” value was “pos (positive responses to both 100 and 10 microgram/ml of peptide or sets of peptides (SI≧2 were regarded positive))”; the “Peptide-induced proliferative response of PBMC, RA 286” value is “pos (positive responses to both 100 and 10 microgram/ml of peptide or sets of peptides (SI≧2 were regarded positive))”. Moreover, the “Response of PBMC … in words” value in test [3] is recorded as “appeared to respond”. Moreover, the “Responses to the individual peptides” value in test [4] is listed as “observed in one or more donors”.
